Reference: ChEMBL document CHEMBL4699598, “Discovery of Novel Substituted N-(4-Amino-2-chlorophenyl)-5-chloro-2-hydroxybenzamide Analogues as Potent Human Adenovirus Inhibitors” (J Med Chem, 2020)
The source made the active and inactive calls. The rule behind the calls is not given here.

How the values were obtained:
[1] = test system: Human adenovirus 5; assay: Antiviral activity against wild-type Human adenovirus 5 infected in human A549 cells assessed as inhibition of viral DNA replication by measuring number of viral DNA copies at 12.7 uM after 24 hrs by RT-qPCR analysis (reference value: 100 +/- 0.16 %); format: functional; set-up: scale not given: the % may be the effect or the level left
[2] = test system: Human adenovirus 5; assay: Antiviral activity against GFP-fused Human adenovirus 5 infected in 293beta5 cells assessed as inhibition of plaque formation incubated for 7 days by GFP reporter gene assay; format: functional, organism-based; details: Human mastadenovirus C, HEK293, 168 h
[3] = Cytotoxicity against human A549 cells assessed as reduction in cell viability incubated for 48 hrs by alamarBlue assay; format: cell-based
[4] = Selectivity index, ratio of CC50 for cytotoxicity against human A549 cells assessed as reduction in cell viability incubated for 48 hrs by alamarBlue assay to IC50 for antiviral activity against Human adenovirus 5 infected in 293beta5 cells assessed as inhibition of plaque formation incubated for 7 days by GFP reporter gene assay; format: toxicity, cell-based; details: read-out: Ratio CC50/IC50
[5] = test system: Human adenovirus 5; assay: Antiviral activity against Human adenovirus 5 infected in 293beta5 cells assessed as inhibition of plaque formation at 10 uM incubated for 7 days by GFP reporter gene assay relative to control; format: functional; details: Human mastadenovirus C, HEK293, 168 h, time 7 day
[6] = test system: Human adenovirus 5; assay: Antiviral activity against WT-Human adenovirus 5 infected in A549 cells assessed as fold reduction in virus yield at 10 fold of IC50 after 48 hrs endpoint dilution method; format: functional
[7] = test system: Human adenovirus 5; assay: Antiviral activity against wild-type Human adenovirus 5 infected in human A549 cells assessed as inhibition of virus entry incubated for 48 hrs by fluorescence assay; format: functional, organism-based; details: Human mastadenovirus C, A549, 48 h
[8] = test system: Human adenovirus 5; assay: Antiviral activity against wild-type Human adenovirus 5 infected in human A549 cells assessed as inhibition of viral entry by measuring nuclear associated viral genome level at 10 fold IC50 incubated for 45 mins by RT-PCR analysis (reference value: 100 +/- 1.07 %); format: functional; set-up: scale not given: the % may be the effect or the level left; details: 0.75 h
[9] = test system: Human adenovirus 5; assay: Antiviral activity against Human adenovirus 5 infected in 293beta5 cells assessed as inhibition of virus infection at 10 fold IC50 measured after 5 mins by GFP reporter gene assay relative to control; format: functional, HEK293
[10] = test system: Human betaherpesvirus 5; assay: Antiviral activity against human cytomegalovirus infected in HFF cells assessed as inhibition of viral replication by measuring number of viral DNA copies at 12.7 uM incubated for 72 hrs by RT-PCR analysis (reference value: 100 +/- 25.56 %); format: functional; set-up: scale not given: the % may be the effect or the level left
[11] = test system: Human adenovirus 5; assay: Antiviral activity against Human adenovirus 5 infected in 293beta5 cells assessed as inhibition of virus infection at 10 fold of IC50 measured at 0 min by GFP reporter gene assay relative to control; format: functional, HEK293
[12] = test system: Human adenovirus 5; assay: Antiviral activity against wild-type Human adenovirus 5 infected in human A549 cells assessed as inhibition of viral DNA replication by measuring number of viral DNA copies at 9 uM after 24 hrs by RT-qPCR analysis (reference value: 100 +/- 0.16 %); format: functional; set-up: scale not given: the % may be the effect or the level left
[13] = test system: Human betaherpesvirus 5; assay: Antiviral activity against human cytomegalovirus infected in HFF cells assessed as inhibition of viral replication by measuring number of viral DNA copies at 9 uM incubated for 72 hrs by RT-PCR analysis (reference value: 100 +/- 25.56 %); format: functional; set-up: scale not given: the % may be the effect or the level left
[14] = test system: Human adenovirus 5; assay: Antiviral activity against wild-type Human adenovirus 5 infected in human A549 cells assessed as inhibition of viral DNA replication by measuring number of viral DNA copies at 2.7 uM after 24 hrs by RT-qPCR analysis (reference value: 100 +/- 0.16 %); format: functional; set-up: scale not given: the % may be the effect or the level left
[15] = test system: Human betaherpesvirus 5; assay: Antiviral activity against human cytomegalovirus infected in HFF cells assessed as inhibition of viral replication by measuring number of viral DNA copies at 2.7 uM incubated for 72 hrs by RT-PCR analysis (reference value: 100 +/- 25.56 %); format: functional; set-up: scale not given: the % may be the effect or the level left
[16] = test system: Human adenovirus 5; assay: Antiviral activity against wild-type Human adenovirus 5 infected in human A549 cells assessed as inhibition of viral DNA replication by measuring number of viral DNA copies at […] after 24 hrs by RT-qPCR analysis (reference value: 100 +/- 0.16 %); format: functional; set-up: scale not given: the % may be the effect or the level left; details: dose 11.1 µM
[17] = test system: Human adenovirus 5; assay: Antiviral activity against Human adenovirus 5 infected in 293beta5 cells assessed as inhibition of virus infection at 10 fold IC50 measured after 60 mins by GFP reporter gene assay relative to control; format: functional, HEK293; details: 1 h
[18] = test system: Human betaherpesvirus 5; assay: Antiviral activity against human cytomegalovirus infected in HFF cells assessed as inhibition of viral replication by measuring number of viral DNA copies at […] incubated for 72 hrs by RT-PCR analysis (reference value: 100 +/- 25.56 %); format: functional; set-up: scale not given: the % may be the effect or the level left; details: dose 11.1 µM
[19] = test system: Human adenovirus 5; assay: Antiviral activity against wild-type Human adenovirus 5 infected in human A549 cells assessed as inhibition of viral DNA replication by measuring number of viral DNA copies at 12 uM after 24 hrs by RT-qPCR analysis (reference value: 100 +/- 0.16 %); format: functional; set-up: scale not given: the % may be the effect or the level left
[20] = test system: Human betaherpesvirus 5; assay: Antiviral activity against human cytomegalovirus infected in HFF cells assessed as inhibition of viral replication by measuring number of viral DNA copies at 12 uM incubated for 72 hrs by RT-PCR analysis (reference value: 100 +/- 25.56 %); format: functional; set-up: scale not given: the % may be the effect or the level left
[21] = test system: Human adenovirus 5; assay: Antiviral activity against Human adenovirus 5 infected in 293beta5 cells assessed as inhibition of virus infection at 10 times IC50 measured after 10 to 20 mins by GFP reporter gene assay relative to control; format: functional, organism-based; details: HEK293, time min 10-20
[22] = test system: Human adenovirus 5; assay: Antiviral activity against wild-type Human adenovirus 5 infected in human A549 cells assessed as inhibition of viral DNA replication by measuring number of viral DNA copies at 9.3 uM after 24 hrs by RT-qPCR analysis (reference value: 100 +/- 0.16 %); format: functional; set-up: scale not given: the % may be the effect or the level left
[23] = test system: Cytomegalovirus; assay: Antiviral activity against human cytomegalovirus infected in HFF cells assessed as decrease in number of viral DNA copies at 9.3 uM incubated for 72 hrs by RT-PCR analysis (reference value: 100 +/- 25.56 %); format: functional; set-up: scale not given: the % may be the effect or the level left
[24] = test system: Human adenovirus 5; assay: Antiviral activity against wild-type Human adenovirus 5 infected in human A549 cells assessed as inhibition of viral DNA replication by measuring number of viral DNA copies at 7.8 uM after 24 hrs by RT-qPCR analysis (reference value: 100 +/- 0.16 %); format: functional; set-up: scale not given: the % may be the effect or the level left
[25] = test system: Human betaherpesvirus 5; assay: Antiviral activity against human cytomegalovirus infected in HFF cells assessed as inhibition of viral replication by measuring number of viral DNA copies at 7.8 uM incubated for 72 hrs by RT-PCR analysis (reference value: 100 +/- 25.56 %); format: functional; set-up: scale not given: the % may be the effect or the level left

Structure (SMILES)	IC50 [2] [µM]	CC50 at 48 h [3] [µM]	selectivity ratio at 48 h [4]	inhibition at 10 µM [5] [%]	fold change (FC) [6]	IC50 [7] [µM]	Activity [8] [%]	inhibition (INH) [11] [%]	other results
CC(C)(Cc1ccccc1)ON(c1ccc(NC(=O)c2cc(Cl)ccc2O)c(Cl)c1)C(C)(C)Cc1ccccc1	1.27	165	130	100	21.5	34.1	95.87		Activity [1]: 2.37%; inhibition (INH) [9]: <50%; Activity [10]: 9.15%
CC(C)(CCO)Nc1ccc(NC(=O)c2cc(Cl)ccc2O)c(Cl)c1	0.9	170	188		15.7		99.97	<50	Activity [12]: 65.04%; Activity [13]: 14.35%
CC1(Nc2ccc(NC(=O)c3cc(Cl)ccc3O)c(Cl)c2)CCCC1	0.27	157	581	100	52.6	15.2	53.7		Activity [14]: 20.21%; inhibition (INH) [9]: <50%; Activity [15]: 91.25%
O=C(Nc1ccc(NCc2ccc(O)cc2)cc1Cl)c1cc(Cl)ccc1O	1.11	116	104		17.4	25	11.56		Activity [16]: 83.72%; inhibition (INH) [17]: >=50%; Activity [18]: 15.71%
CC(CCO)Nc1ccc(NC(=O)c2cc(Cl)ccc2O)c(Cl)c1 (stereo not given)	1.2	200	167		9.3	30.8	98.96	<50	Activity [19]: 80.94%; Activity [20]: 22.47%
CC(C)(C)OC(=O)N1CCC(CNc2ccc(NC(=O)c3cc(Cl)ccc3O)c(Cl)c2)CC1	0.93	92	102		232	< 3.13	59.54		inhibition [21]: inactive; Activity [22]: 2.49%; Activity [23]: 15.58%
O=C(Nc1ccc(NCc2ccc(O)nc2)cc1Cl)c1cc(Cl)ccc1O	0.78	98.5	126	100	26.6	> 50	13.6	<50	Activity [24]: 53.62%; Activity [25]: 18.18%
